Measured values: US8871753B2, “Macrocyclic compounds and their use as kinase inhibitors” (Incyte Corporation, priority 2008, dated 2014)
Counter-ions that a name gives are not always drawn. Like-named read-outs stand apart in the source and are kept apart here.

Assays:
Type in all cases: biochemical
TYK2 = TYK2 (Homo sapiens, UniProt P29597); experiment: TYK2 kinase inhibition (Table A1)
[1] = molecular target: T1, Recombinant Human Anaplastic Lymphoma Kinase (Homo sapiens, UniProt Q9UM73); experiment: ALK HTRF kinase assay
T1 construct: purchased Invitrogen, Carlsbad, Calif
T1 sequence (Q9UM73 19-1620): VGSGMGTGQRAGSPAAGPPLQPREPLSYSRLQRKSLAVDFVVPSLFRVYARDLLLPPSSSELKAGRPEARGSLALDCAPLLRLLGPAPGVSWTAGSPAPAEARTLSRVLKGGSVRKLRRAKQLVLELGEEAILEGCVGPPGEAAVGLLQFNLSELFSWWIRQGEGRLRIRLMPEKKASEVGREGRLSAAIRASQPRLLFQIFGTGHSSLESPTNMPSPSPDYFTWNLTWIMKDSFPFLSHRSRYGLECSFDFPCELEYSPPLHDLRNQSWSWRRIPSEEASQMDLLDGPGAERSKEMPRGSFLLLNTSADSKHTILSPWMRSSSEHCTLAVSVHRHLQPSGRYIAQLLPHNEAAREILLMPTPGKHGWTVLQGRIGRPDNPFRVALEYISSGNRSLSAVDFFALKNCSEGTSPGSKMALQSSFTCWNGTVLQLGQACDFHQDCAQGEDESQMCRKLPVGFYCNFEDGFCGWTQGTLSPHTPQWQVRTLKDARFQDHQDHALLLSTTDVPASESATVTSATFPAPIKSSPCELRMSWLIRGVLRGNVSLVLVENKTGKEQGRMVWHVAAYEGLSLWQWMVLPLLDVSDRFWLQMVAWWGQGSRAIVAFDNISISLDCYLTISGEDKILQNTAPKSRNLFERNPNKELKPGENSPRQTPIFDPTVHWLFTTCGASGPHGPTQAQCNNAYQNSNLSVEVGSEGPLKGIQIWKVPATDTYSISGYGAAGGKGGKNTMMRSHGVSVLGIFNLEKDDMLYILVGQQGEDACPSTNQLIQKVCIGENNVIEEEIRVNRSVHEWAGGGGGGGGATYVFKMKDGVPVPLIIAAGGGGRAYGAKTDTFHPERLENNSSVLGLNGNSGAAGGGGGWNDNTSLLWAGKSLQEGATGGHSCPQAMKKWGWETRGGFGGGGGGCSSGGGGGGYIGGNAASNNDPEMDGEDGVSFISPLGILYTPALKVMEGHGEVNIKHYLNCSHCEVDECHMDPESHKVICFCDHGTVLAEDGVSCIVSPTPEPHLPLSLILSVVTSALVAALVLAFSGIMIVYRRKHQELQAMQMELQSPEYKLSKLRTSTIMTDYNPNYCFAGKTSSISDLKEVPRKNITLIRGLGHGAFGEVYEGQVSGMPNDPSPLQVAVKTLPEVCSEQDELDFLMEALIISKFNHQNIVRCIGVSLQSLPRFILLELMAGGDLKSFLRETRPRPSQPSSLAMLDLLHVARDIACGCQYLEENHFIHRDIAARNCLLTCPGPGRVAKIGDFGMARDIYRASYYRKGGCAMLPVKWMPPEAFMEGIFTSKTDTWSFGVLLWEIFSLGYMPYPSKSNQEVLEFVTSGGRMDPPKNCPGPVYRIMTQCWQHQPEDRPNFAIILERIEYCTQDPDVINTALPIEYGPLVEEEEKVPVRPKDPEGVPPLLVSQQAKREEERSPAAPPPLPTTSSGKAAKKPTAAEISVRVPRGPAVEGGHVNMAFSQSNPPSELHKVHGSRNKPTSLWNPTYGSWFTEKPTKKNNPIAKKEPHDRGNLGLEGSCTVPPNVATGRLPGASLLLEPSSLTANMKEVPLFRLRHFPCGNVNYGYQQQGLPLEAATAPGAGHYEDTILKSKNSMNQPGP
Method in brief: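 Kinase activity of the recombinant human protein is measured on a biotinylated peptide, with a Eu-W1024 anti-phosphotyrosine antibody and streptavidin-allophycocyanin generating the homogeneous time-resolved fluorescence signal. Inhibition curves are fitted to yield IC50.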

[2] = molecular target: T2, human JAK2 (a.a. 828-1132) (Homo sapiens, UniProt O60674); experiment: In vitro JAK kinase assay (HTRF, phosphorylation of a biotinylated peptide), JAK2
T2 construct: JAK2 (a.a. 828-1132); His tag (N); made in house; host or cells: insect cells (baculovirus)
T2 sequence (O60674 828-1132): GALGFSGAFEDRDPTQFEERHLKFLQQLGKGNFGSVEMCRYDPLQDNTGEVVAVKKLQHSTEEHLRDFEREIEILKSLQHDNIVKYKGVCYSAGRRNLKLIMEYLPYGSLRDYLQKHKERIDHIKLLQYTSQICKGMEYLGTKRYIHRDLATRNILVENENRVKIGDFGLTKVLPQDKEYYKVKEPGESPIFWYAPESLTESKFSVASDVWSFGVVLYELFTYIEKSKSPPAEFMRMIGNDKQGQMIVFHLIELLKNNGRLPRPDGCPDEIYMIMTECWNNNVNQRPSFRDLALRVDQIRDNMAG
Method in brief: (§1)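 Kinase activity was measured as phosphorylation of a biotinylated peptide, with ATP at 90 μM for JAK1, 30 μM for JAK2 and 3 μM for JAK3. Reactions ran 1 hr at room temperature, were stopped with EDTA plus SA-APC and Eu-Py20, and were read by HTRF after 40 minutes of antibody binding.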

[3] = molecular target: T3, human JAK1 (a.a. 837-1142) (Homo sapiens, UniProt P23458); experiment: In vitro JAK kinase assay (HTRF, phosphorylation of a biotinylated peptide), JAK1; conditions: read-out: JAK1 IC50
T3 construct: human JAK1 (a.a. 837-1142); His tag (N); made in house; host or cells: insect cells (baculovirus)
T3 sequence (P23458 849-1154): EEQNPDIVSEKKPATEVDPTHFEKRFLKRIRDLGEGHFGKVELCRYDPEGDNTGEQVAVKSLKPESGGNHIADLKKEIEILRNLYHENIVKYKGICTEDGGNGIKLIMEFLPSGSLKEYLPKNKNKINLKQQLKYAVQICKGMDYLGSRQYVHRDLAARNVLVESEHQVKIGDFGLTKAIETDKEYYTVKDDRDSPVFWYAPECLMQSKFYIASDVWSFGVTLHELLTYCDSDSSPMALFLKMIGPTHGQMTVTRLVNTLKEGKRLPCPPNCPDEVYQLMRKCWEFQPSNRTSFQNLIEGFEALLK
Method in brief: as §1

[4] = molecular target: T4, human JAK3 (a.a. 781-1124) (Homo sapiens, UniProt P52333); experiment: In vitro JAK kinase assay (HTRF, phosphorylation of a biotinylated peptide), JAK3
T4 construct: JAK3 (a.a. 781-1124); His tag (N); made in house; host or cells: insect cells (baculovirus)
T4 sequence (P52333 781-1124): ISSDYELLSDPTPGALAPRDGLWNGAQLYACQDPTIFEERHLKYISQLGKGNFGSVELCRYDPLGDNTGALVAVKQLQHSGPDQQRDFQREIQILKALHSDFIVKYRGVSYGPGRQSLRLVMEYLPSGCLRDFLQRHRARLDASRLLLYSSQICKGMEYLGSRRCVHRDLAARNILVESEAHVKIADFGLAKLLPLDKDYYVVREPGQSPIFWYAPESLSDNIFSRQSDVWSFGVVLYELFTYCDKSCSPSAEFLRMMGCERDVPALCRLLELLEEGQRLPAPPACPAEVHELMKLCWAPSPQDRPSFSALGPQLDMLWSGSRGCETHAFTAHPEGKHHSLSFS
Method in brief: as §1

[5] = compound at 500 nM or 1 mM, 90 μM ATP
[6] = method AA1 (30 μM ATP) or AA2 (1000 μM ATP), not stated per value
[7] = method AA1 (90 μM ATP) or AA2 (1000 μM ATP), not stated per value
[8] = method AA1 (3 μM ATP) or AA2 (1000 μM ATP), not stated per value
[9] = compound at a concentration of 500 nM or 1 mM (not specified), cells shown as percentage
[10] = Table B1, cells without percent sign

TYK2, sequence (P29597 whole entry): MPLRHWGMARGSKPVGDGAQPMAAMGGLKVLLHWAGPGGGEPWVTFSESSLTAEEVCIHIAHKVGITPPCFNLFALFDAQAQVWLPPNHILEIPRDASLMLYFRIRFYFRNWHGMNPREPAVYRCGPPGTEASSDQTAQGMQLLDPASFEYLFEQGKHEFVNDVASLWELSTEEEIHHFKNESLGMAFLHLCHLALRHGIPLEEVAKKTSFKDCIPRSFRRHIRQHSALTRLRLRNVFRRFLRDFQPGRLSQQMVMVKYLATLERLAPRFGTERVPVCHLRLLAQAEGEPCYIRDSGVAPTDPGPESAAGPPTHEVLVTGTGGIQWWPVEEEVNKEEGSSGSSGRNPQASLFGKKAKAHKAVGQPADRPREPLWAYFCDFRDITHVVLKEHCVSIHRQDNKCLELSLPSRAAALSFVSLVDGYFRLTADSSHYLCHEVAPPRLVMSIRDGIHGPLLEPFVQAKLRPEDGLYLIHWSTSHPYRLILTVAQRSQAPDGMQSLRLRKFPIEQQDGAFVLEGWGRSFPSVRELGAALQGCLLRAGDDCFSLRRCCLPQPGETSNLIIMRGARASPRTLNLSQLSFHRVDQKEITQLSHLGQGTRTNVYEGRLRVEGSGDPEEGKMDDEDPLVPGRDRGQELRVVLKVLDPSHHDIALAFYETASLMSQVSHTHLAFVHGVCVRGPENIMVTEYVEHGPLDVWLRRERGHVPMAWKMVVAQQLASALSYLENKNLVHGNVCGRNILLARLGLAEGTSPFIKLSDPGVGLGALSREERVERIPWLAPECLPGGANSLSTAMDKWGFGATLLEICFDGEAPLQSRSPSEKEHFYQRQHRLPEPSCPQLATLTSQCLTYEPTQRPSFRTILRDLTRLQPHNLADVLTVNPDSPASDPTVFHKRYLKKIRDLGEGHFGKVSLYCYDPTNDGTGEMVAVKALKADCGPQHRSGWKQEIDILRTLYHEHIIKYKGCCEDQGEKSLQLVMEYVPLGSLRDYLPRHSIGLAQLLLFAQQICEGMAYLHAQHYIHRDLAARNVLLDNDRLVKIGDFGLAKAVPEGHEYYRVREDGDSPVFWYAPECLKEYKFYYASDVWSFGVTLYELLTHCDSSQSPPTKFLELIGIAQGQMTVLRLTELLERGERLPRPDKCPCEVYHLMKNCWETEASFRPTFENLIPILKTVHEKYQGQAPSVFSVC

IC50 (TYK2; Table B1) | ALK % of inhibition at a concentration of 500 nM or 1 mM [1, 9] | IC50 ([2]; Table B1) | IC50 ([3]; Table B1) | IC50 ([4]; Table B1) | SMILES | also measured
 |  |  |  |  | CNC(=O)N1CCC(CC(=O)Nc2ccc3cc2CCc2cncc(c2)Nc2ncc(Cl)c(n2)N3)CC1 [Example A100, 4-(2-{[6-Chloro-2,4,8,18,22-pentaazatetracyclo[14.3.1.1(3,7).1(9,13)]docosa-1(20),3(22),4,6,9(21),10,12,16,18-nonaen-12-yl]amino}-2-oxoethyl)-N-methylpiperidine-1-carboxamide bis(trifluoroacetate)] | IC50 (TYK2): 3 nM; ALK % of inhibition at a concentration of 500 nM or 1 mM [1, 5]: 28%; IC50 [2, 6]: 5.8 nM; IC50 [3, 7]: 1.5 nM; IC50 [4, 8]: 58 nM
154 nM | 21% | 103 nM | 80 nM | 178 nM | CC(C)(C)c1ccc(C(=O)Nc2ccc3cc2CCc2cccc(c2)Nc2ncc(Cl)c(n2)N3)cc1 [Example B73, 4-tert-Butyl-N-[6-chloro-2,4,8,22-tetraazatetracyclo[14.3.1.1(3,7).1(9,13)]docosa-1(20),3(22),4,6,9(21),10,12,16,18-nonaen-12-yl]benzamide trifluoroacetate] | 
0.49 nM | 71% | 0.15 nM | 0.15 nM | 0.64 nM | O=S(=O)(Nc1ccc2cc1CCc1cccc(c1)Nc1ncc(Cl)c(n1)N2)C1CC1 [Example B158, N-[6-Chloro-2,4,8,22-tetraazatetracyclo[14.3.1.1(3,7).1(9,13)]docosa-1(20), 3(22),4,6,9(21),10,12,16,18-nonaen-12-yl]cyclopropanesulfonamide trifluoroacetate] | 
12 nM |  | 3.4 nM | 2.6 nM | 43 nM | O=C(NCc1ccccc1)Nc1ccc2cc1CCc1cccc(c1)Nc1ncc(Cl)c(n1)N2 [Example B93, N-benzyl-N′-[6-chloro-2,4,8,22-tetraazatetracyclo[14.3.1.1(3,7).1(9,13)]docosa-1(20),3(22),4,6,9(21),10,12,16,18-nonaen-12-yl]urea trifluoroacetate] | IC50 [1, 10]: > 1000 nM
 |  |  |  |  | O=C(NC1CCCC1)N1CCN(c2cc(-c3cc4cc(c3)Nc3ncc(Cl)c(n3)Nc3cccc(c3)OCC4)ccn2)CC1 [Example D46, 4-{4-[6-Chloro-14-oxa-2,4,8,23-tetraazatetracyclo[15.3.1.1(3,7).1(9,13)]tricosa-1(21),3(23),4,6,9(22),10,12,17,19-nonaen-19-yl]pyridin-2-yl}-N-cyclopentylpiperazine-1-carboxamide bis(trifluoroacetate)] | IC50 (TYK2; Table D1): 8.2 nM; IC50 ([1]; Table D1, 90 μM ATP): 390 nM; IC50 ([2]; Table D1): 0.9 nM; IC50 ([3]; Table D1): 4.7 nM; IC50 ([4]; Table D1): 21 nM
 |  |  |  |  | O=S1(=O)Cc2cccc(c2)Nc2ncc(Cl)c(n2)Nc2cccc(c2)N1 [Example C9, 6-Chloro-15-thia-2,4,8,14,23-pentaazatetracyclo[15.3.1.1(3,7).1(9,13)]tricosa-1(21),3(23),4,6,9(22),10,12,17,19-nonaene 15,15-dioxide trifluoroacetate] | IC50 (TYK2): 353 nM; IC50 [1]: > 1000 nM; IC50 [2]: 93 nM; IC50 [3]: 144 nM; IC50 [4]: 412 nM
> 1000 nM | 39% | 281 nM | > 1000 nM | 231 nM | O=C(Nc1cccc(F)c1)Nc1cc2cc(c1)Nc1nc(ncc1Cl)Nc1cccc(c1)CC2 [Example B214, N-[6-Chloro-2,4,8,22-tetraazatetracyclo[14.3.1.1(3,7).1(9,13)]docosa-1(20),3(22),4,6,9(21),10,12,16,18-nonaen-11-yl]-N′-(3-fluorophenyl)urea trifluoroacetate] | 
206 nM | 11% | 173 nM | 70 nM | 184 nM | O=C(Nc1cc2cc(c1)Nc1nc(ncc1Cl)Nc1cccc(c1)CC2)Nc1ccccc1F [Example B213, N-[6-Chloro-2,4,8,22-tetraazatetracyclo[14.3.1.1(3,7).1(9,13)]docosa-1(20),3(22),4,6,9(21),10,12,16,18-nonaen-11-yl]-N′-(2-fluorophenyl)urea trifluoroacetate] | 
15 nM |  | 3.7 nM | 5.2 nM | 8.5 nM | O=C(Nc1ccc2cc1CCc1cccc(c1)Nc1ncc(Cl)c(n1)N2)C1CC1 [Example B27, N-[6-Chloro-2,4,8,22-tetraazatetracyclo[14.3.1.1(3,7).1(9,13)]docosa-1(20), 3(22),4,6,9(21),10,12,16,18-nonaen-12-yl]cyclopropanecarboxamide trifluoroacetate] | IC50 [1, 10]: 880 nM
 |  |  |  |  | O=C(CC1CCN(C(=O)c2ccon2)CC1)Nc1ccc2cc1CCc1cncc(c1)Nc1ncc(Cl)c(n1)N2 [Example A135, N-[6-Chloro-2,4,8,18,22-pentaazatetracyclo[14.3.1.1(3,7).1(9,13)]docosa-1(20),3(22),4,6,9(21),10,12,16,18-nonaen-12-yl]-2-[1-(isoxazol-3-ylcarbonyl)piperidin-4-yl]acetamide bis(trifluoroacetate)] | IC50 (TYK2): 0.9 nM; ALK % of inhibition at a concentration of 500 nM or 1 mM [1, 5]: 30%; IC50 [2, 6]: 2.3 nM; IC50 [3, 7]: 0.4 nM; IC50 [4, 8]: 79 nM
 |  |  |  |  | Cc1nc(S(=O)(=O)Nc2cc3cc(c2)OCCSc2cccc(c2)Nc2nc(ncc2Cl)N3)cn1C [Example D69, N-[6-Chloro-17-oxa-14-thia-2,4,8,24-tetraazatetracyclo[16.3.1.1(3,7).1(9,13)]tetracosa-1(22),3(24),4,6,9(23),10,12,18,20-nonaen-20-yl]-1,2-dimethyl-1H-imidazole-4-sulfonamide bis(trifluoroacetate)] | IC50 (TYK2; Table D1): 8.4 nM; IC50 ([1]; Table D1, 90 μM ATP): 160 nM; IC50 ([2]; Table D1): 1.4 nM; IC50 ([3]; Table D1): 3.5 nM; IC50 ([4]; Table D1): 8.6 nM
21 nM | 23% | 13 nM | 4.2 nM | 77 nM | CN1CCCC1CCNC(=O)Nc1ccc2cc1CCc1cccc(c1)Nc1ncc(Cl)c(n1)N2 (stereo not shown) [Example B256, N-[6-Chloro-2,4,8,22-tetraazatetracyclo[14.3.1.1(3,7).1(9,13)]docosa-1(20),3(22),4,6,9(21),10,12,16,18-nonaen-12-yl]-N′-[2-(1-methylpyrrolidin-2-yl)ethyl]urea bis(trifluoroacetate)] | 
 |  |  |  |  | Cc1cc(C(=O)N2CCN(CC(=O)Nc3ccc4cc3CCc3cccc(c3)Nc3ncc(Cl)c(n3)N4)CC2)no1 [Example A123, N-[6-Chloro-2,4,8,22-tetraazatetracyclo[14.3.1.1(3,7).1(9,13)]docosa-1(20),3(22),4,6,9(21),10,12,16,18-nonaen-12-yl]-2-{4-[(5-methylisoxazol-3-yl)carbonyl]piperazin-1-yl}acetamide bis(trifluoroacetate)] | IC50 (TYK2): 8.3 nM; ALK % of inhibition at a concentration of 500 nM or 1 mM [1, 5]: 26%; IC50 [2, 6]: 9.6 nM; IC50 [3, 7]: 7.2 nM; IC50 [4, 8]: 68 nM
 |  |  |  |  | Clc1cnc2nc1Nc1cccc(c1)OCCc1cc(cc(-c3ccnc(N4CCNCC4)c3)c1)N2 [Example D27, 6-Chloro-19-(2-piperazin-1-ylpyridin-4-yl)-14-oxa-2,4,8,23-tetraazatetracyclo[15.3.1.1(3,7).1(9,13)]tricosa-1(21),3(23),4,6,9(22),10,12,17,19-nonaene tris(trifluoroacetate)] | IC50 (TYK2; Table D1): 3.9 nM; IC50 ([1]; Table D1, 90 μM ATP): 32 nM; IC50 ([2]; Table D1): 0.3 nM; IC50 ([3]; Table D1): 1.5 nM; IC50 ([4]; Table D1): 3.5 nM
30 nM | 34% | 10 nM | 2.8 nM | 76 nM | Cn1ccc2c(NC(=O)Nc3ccc4cc3CCc3cccc(c3)Nc3ncc(Cl)c(n3)N4)cccc21 [Example B125, N-[6-Chloro-2,4,8,22-tetraazatetracyclo[14.3.1.1(3,7).1(9,13)]docosa-1(20), 3(22),4,6,9(21),10,12,16,18-nonaen-12-yl]-N′-(1-methyl-1H-indol-4-yl)urea trifluoroacetate] | 
34 nM |  | 1.4 nM | 19 nM | 3 nM | CCC(C)C(=O)Nc1ccc2cc1CCc1cccc(c1)Nc1ncc(Cl)c(n1)N2 (stereo not shown) [Example B61, N-[6-Chloro-2,4,8,22-tetraazatetracyclo[14.3.1.1(3,7).1(9,13)]docosa-1(20), 3(22),4,6,9(21),10,12,16,18-nonaen-12-yl]-2-methylbutanamide trifluoroacetate] | IC50 [1, 10]: 680 nM
22 nM |  | 2.9 nM | 13 nM | 48 nM | O=C(Nc1ccc2cc1CCc1cccc(c1)Nc1ncc(Cl)c(n1)N2)c1cnccn1 [Example B44, N-[6-Chloro-2,4,8,22-tetraazatetracyclo[14.3.1.1(3,7).1(9,13)]docosa-1(20), 3(22),4,6,9(21),10,12,16,18-nonaen-12-yl]pyrazine-2-carboxamide bis(trifluoroacetate)] | IC50 [1, 10]: 300 nM
